Measured values as given in patent US5952008A, “Processes for preparing compositions for inhalation” (AB Astra, priority 1993, dated 1999).

Assays:
[1] = Inhalation of insulin/enhancer powder in rats, blood glucose monitored as measure of insulin uptake; assay type: in vivo, rat; conditions: for Effect (enhancement of insulin uptake, blood glucose level): rats, inhaled powder; for Enhancement of polypeptide (insulin) absorption in the lung, result in words: rat model
Method: Each of the compounds listed in Table I was tested for its ability to enhance uptake of a polypeptide (insulin) in a rat model.
Various forms of insulin were employed in the different trials: recombinant human, semisynthetic human or bovine. Each formulation was prepared as above, drying and processing the insulin/enhancer or insulin/enhancer/lactose solution to produce an inhalable powder. The powder was administered to rats by inhalation, and the blood glucose levels of the rats were subsequently monitored as a measure of insulin uptake. These levels were compared to the corresponding values obtained from rats which had inhaled insulin formulations without enhancer.

[2] = tested on: CaCo-2 epithelial cell monolayer; assay: In vitro CaCo-2 epithelial cell monolayer transport assay; assay type: in vitro ADME; conditions: for Transport rate across the monolayer with enhancer, in words: up to 16 mM sodium caprate
Method: A standard in vitro assay utilizing an epithelial cell line, CaCo-2 (available through the American Type Culture Collection (ATCC), Rockville, Md., USA), has been developed to assess the ability of various enhancer compounds to promote transport of markers across an epithelial cell monolayer, as a model for the epithelial cell layer which functions in the lung to separate the alveolus from the pulmonary blood supply.
In this assay, the enhancer and polypeptide or other marker are dissolved in aqueous solution at various proportions and/or concentrations, and applied to the apical side of the cell monolayer. After 60 min incubation at 37° C. and 95% RH (relative humidity), the amount of the marker on the basolateral side of the cells is determined, e.g., by use of a radioactively labelled marker.

[3] = Enhancer:Insulin:lactose 4:4:92
[4] = Enhancer:Insulin:lactose 25:75:0
[5] = Enhancer:Insulin:lactose 2:4:94

CCCCCCCC/C=C\CCCCCCCC(=O)[O-].[K+] [Potassium oleate]
Effect (enhancement of insulin uptake, blood glucose level) [1, 3]: +

albumin
Transport rate across the monolayer with enhancer, in words [2]: no increase in transport rate

CCCCCCCCCC(=O)[O-].[Na+] [Sodium caprate]
Amount of marker (mannitol) appearing on the basolateral side, insulin added ([2]; 1:3 sodium caprate:insulin by weight, FIG. 2): dependent upon the concentration of enhancer used | Amount of marker (mannitol) appearing on the basolateral side ([2]; sodium caprate up to 16 mM, 60 min, 37° C., FIG. 1): dependent upon the concentration of enhancer used | Enhancement of polypeptide (insulin) absorption in the lung, result in words [1]: perform well | Effect (enhancement of insulin uptake, blood glucose level) ([1]; Enhancer:Insulin:lactose 10:90:0): (+) | Effect (enhancement of insulin uptake, blood glucose level) ([1]; Enhancer:Insulin:lactose 17.5:82.5:0): (+) | Effect (enhancement of insulin uptake, blood glucose level) [1, 4]: +

CCCCCCCC(=O)OCC(COP(=O)([O-])OCC[N+](C)(C)C)OC(=O)CCCCCCC (stereo not shown) [Dioctanoylphosphatidylcholine]
Effect (enhancement of insulin uptake, blood glucose level) [1, 5]: (+) | Effect (enhancement of insulin uptake, blood glucose level) ([1]; Enhancer:Insulin:lactose 4:4:94): -

NC(=O)CC[C@@H]1NC(=O)[C@H](Cc2ccccc2)NC(=O)[C@H](Cc2ccc(O)cc2)NC(=O)[C@@H](N)CSSC[C@@H](C(=O)N2CCC[C@H]2C(=O)N[C@@H](CCCN=C(N)N)C(=O)NCC(N)=O)NC(=O)[C@H](CC(N)=O)NC1=O [vasopressin]
Increase in amount absorbed across the monolayer compared to absence of enhancer ([2]; 16 mM sodium caprate): 10-15 times

carbonic anhydrase
Transport rate across the monolayer with enhancer, in words [2]: no increase in transport rate

CCCCCCCCCCCCCC(=O)[O-].[Na+] [Sodium myristate]
Enhancement of polypeptide (insulin) absorption in the lung, result in words [1]: perform well | Effect (enhancement of insulin uptake, blood glucose level) ([1]; Enhancer:Insulin:lactose 30:70:0): +

Dimethyl-β-cyclodextrin
Enhancement of polypeptide (insulin) absorption in the lung, result in words [1]: absorption enhancing effect | Effect (enhancement of insulin uptake, blood glucose level) ([1]; Enhancer:Insulin:lactose 75:25:0): +

CCCCCCCCCCCC(=O)[O-].[Na+] [Sodium laurate]
Enhancement of polypeptide (insulin) absorption in the lung, result in words [1]: perform well | Effect (enhancement of insulin uptake, blood glucose level) [1, 4]: +

CCCCCCCC(=O)[O-].[Na+] [Sodium caprylate]
Effect (enhancement of insulin uptake, blood glucose level) [1, 4]: -

cytochrome C
Transport rate across the monolayer with enhancer, in words [2]: no increase in transport rate

CC(=O)OC1CC2(C)C(CC(O)C3C4(C)CCC(O)C(C)C4CCC32C)C1=C(CCCC(C)C)C(=O)NCCS(=O)(=O)O (stereo not shown) [Sodium tarodihydrofusidate]
Enhancement of polypeptide (insulin) absorption in the lung, result in words [1]: effectively enhance polypeptide absorption in the lung | Effect (enhancement of insulin uptake, blood glucose level) [1, 5]: +

Lysine caprate
Enhancement of polypeptide (insulin) absorption in the lung, result in words [1]: effective | Effect (enhancement of insulin uptake, blood glucose level) ([1]; Enhancer:Insulin:lactose 35:65:0): +

CCCCCCCCOC1O[C@H](CO)[C@@H](O)[C@H](O)[C@H]1O (stereo partly shown) [Octylglucopyranoside]
Enhancement of polypeptide (insulin) absorption in the lung, result in words [1]: some absorption enhancing properties | Effect (enhancement of insulin uptake, blood glucose level) [1, 3]: (+)

O=C(O)CN(CCN(CC(=O)O)CC(=O)O)CC(=O)O [EDTA, ethylenediaminetetraacetic acid]
Enhancement of polypeptide (insulin) absorption in the lung, result in words [1]: ineffective

Lysophosphatidylcholine
Enhancement of polypeptide (insulin) absorption in the lung, result in words [1]: effective enhancer | Effect (enhancement of insulin uptake, blood glucose level) [1, 3]: +

C[C@H](CCC(=O)NCCS(=O)(=O)O)[C@H]1CC[C@H]2[C@@H]3[C@H](O)C[C@@H]4C[C@H](O)CC[C@]4(C)[C@H]3C[C@H](O)[C@]12C [Sodium taurocholate]
Enhancement of polypeptide (insulin) absorption in the lung, result in words [1]: effectively enhance polypeptide absorption in the lung | Effect (enhancement of insulin uptake, blood glucose level) [1, 3]: +

C[C@H](CCC(=O)NCC(=O)O)[C@H]1CC[C@H]2[C@@H]3[C@H](O)C[C@@H]4C[C@H](O)CC[C@]4(C)[C@H]3C[C@H](O)[C@]12C [Sodium glycocholate]
Enhancement of polypeptide (insulin) absorption in the lung, result in words [1]: effectively enhance polypeptide absorption in the lung | Effect (enhancement of insulin uptake, blood glucose level) [1, 3]: +

C[C@H](CCC(=O)O)[C@H]1CC[C@H]2[C@@H]3[C@@H](O)C[C@@H]4C[C@H](O)CC[C@]4(C)[C@H]3CC[C@]12C [Sodium ursodeoxycholate]
Enhancement of polypeptide (insulin) absorption in the lung, result in words [1]: effectively enhance polypeptide absorption in the lung | Effect (enhancement of insulin uptake, blood glucose level) [1, 3]: +

CCCCCCCCCC(=O)[O-].[K+] [Potassium caprate]
Enhancement of polypeptide (insulin) absorption in the lung, result in words [1]: effective | Effect (enhancement of insulin uptake, blood glucose level) ([1]; Enhancer:Insulin:lactose 27:73:0): +
